US20150031102A1, “METHODS AND COMPOSITIONS FOR ENHANCED PRODUCTION OF BUTANOL BY CLOSTRIDIA” (Butrolix LLC, priority 2012, published 2015)

Assays:
[1] = tested on: C. beijerinckii NCIMB 8052; experiment: Sequential batch cultures of C. beijerinckii NCIMB 8052 grown at 30° C. in YEPG (growth OD600, final pH, ceric ion reactive compounds); format: cell-based, Clostridium beijerinckii
Description: (§1) Clostridium acetobutylicum ATCC 824 and C. beijerinckii NCIMB 8052 are available from several commercial microbial culture collections including the American Type Culture Collection (ATCC), Manassas, Va., USA. The strain grown at 30 C or 37 C in YE broth, which contained, per liter: 5.0 g yeast extract, 2.5 g casamino acids, 1.0 g L-asparagine, 0.5 g cysteine·HCl, 56 mg K2HPO4, 56 mg KH2PO4, 82 mg anhydrous MgSO4, 8 mg FeSO4.H2O, 6 mg MnSO4.H2O and 10 g glucose. Alternatively, strains were grown in YEPG broth, which was identical to YE expect that K2HPO4 and KH2PO4 were increased to 145 mg/L each and glucose was increased to 60 g/L. The pH of the media was adjusted to 7.2 using 45% KOH prior to sterilization by autoclaving. Media were solidified by addition of 1.5% Bacteriological Agar, Acumedia Manufacturers, Inc., Lansing, Mich. All cultures were grown in anaerobic conditions using the AnaeroPack System, Mitsubishi Gas Chemical Co., Inc., Japan, and GasPak EZ Gas Generating Sachets, Becton, Dickinson and Co., Sparks, Md. Spore stocks were kept at room temperature on agar-solidified media and were activated by suspending spores in 0.5 mL to 1.0 mL of medium followed by heating for 10 min at 80 C before inoculation into growth medium.
(§2) Growth of bacterial cultures was measured spectrophotometrically using optical density at 600 nm and pH of cell-free culture supernatants was measured using a hand-held Shindengen ISFET pH Meter KS501, Shendengen Electric Manufacturing Co., Ltd., Bannockburn, Ill.
(§3) Total alcohols in cell-free culture supernatants were measured using a modification of a colorimetric method based on ceric ammonium nitrate (Reid and Truelove, 1952). The ceric ion reagent was prepared by adding 1.3 mL of concentrated nitric acid to 40 mL of distilled water, then 10.96 g of ceric ammonium nitrate was dissolved in the dilute nitric acid solution and the solution was brought to a final volume of 50 mL. For the assay, […] of butanol standard or culture supernatant was mixed with […] distilled water in a disposable plastic cuvette followed by addition of […] of the ceric ion reagent. The sample was mixed by inverting the cuvette six times then exactly two minutes later the optical density at 500 nm wavelength was measured. The concentration of total alcohols was determined by comparison with a standard curve prepared by using butanol diluted in distilled water.
Spores of C. beijerinckii NCIMB 8052 were germinated and grown overnight at 30 C under anaerobic conditions in YEPG medium. After about 24 h of growth, […] of the culture was transferred (transfer 1) to each of four flasks that contained 10 mL of YEPG and either had no treatment or were treated with peptide SEQ ID NO: 145 (see Table 8) at 1 nM, 10 nM or 50 nM. Thereafter, […] of each culture was transferred, at the same time, every 24-48 h to 10 mL of fresh YEPG that contained the same peptide treatment or no treatment. Each culture was stopped after 96 hours of incubation and optical density, pH and ceric ion reactive chemicals were measured. Sequential batch culturing was continued through 6 transfers at which point all cultures appeared to be growing to the same extent (Table 12 and FIG. 4).

[2] = tested on: C. beijerinckii NCIMB 8052; experiment: Germination and sequential batch cultures of C. beijerinckii NCIMB 8052 grown at 37° C. (growth OD600, final pH, ceric ion reactive compounds); format: cell-based, Clostridium beijerinckii
Description: as §1, §2, §3
Spores of C. beijerinckii NCIMB 8052 were germinated and grown overnight at 37 C under anaerobic conditions in YEPG medium that either contained 50 nM of peptide SEQ ID NO: 145 or no added peptide. After about 24 h of growth, […] of the untreated culture was transferred (transfer 1) to each of two flasks that contained 10 mL of YEPG with either no treatment or with 50 nM peptide SEQ ID NO: 145. At the same time, 10 μL of the culture that was germinated in the presence of peptide SEQ ID NO: 145 was also transferred to 10 mL of YEPG that contained 50 nM of peptide SEQ ID NO: 145. Thereafter, […] of each culture was transferred, at the same time, every 24-48 h to 10 mL of fresh YEPG that contained the same peptide treatment or no treatment. Each culture was stopped after 72 hours of incubation and optical density, pH and ceric ion reactive chemicals were measured. Addition of peptide SEQ ID NO: 145 appeared to have no effect on endpoint measurements of the growth of C. beijerinckii NCIMB 8052 after germination or during sequential transfers of cultures at 37° C. (Table 18 and FIG. 10). All three cultures stopped growing at the second transfer. Likewise, there was no apparent effect on endpoint measurements of pH or ceric ion reactive compounds (Tables 19 and 20 and FIGS. 11 and 12).

[3] = 10 nM, transfer 1, 96 h culture
[4] = 10 nM, transfer 2, 96 h culture
[5] = 10 nM, transfer 3, 96 h culture
[6] = 10 nM, transfer 4, 96 h culture
[7] = 10 nM, transfer 5, 96 h culture
[8] = 10 nM, transfer 6, 96 h culture
[9] = 50 nM, transfer 1, 96 h culture
[10] = 50 nM, transfer 2, 96 h culture
[11] = 50 nM, transfer 3, 96 h culture
[12] = 50 nM, transfer 4, 96 h culture
[13] = 50 nM, transfer 5, 96 h culture
[14] = 50 nM, transfer 6, 96 h culture
[15] = 50 nM added after germination, transfer 1, 72 h culture
[16] = 50 nM added after germination, transfer 2, 72 h culture
[17] = 50-50 (germinated and transferred in 50 nM), transfer 1, 72 h culture
[18] = 50-50 (germinated and transferred in 50 nM), transfer 2, 72 h culture
[19] = 50-50 (spores germinated in 50 nM peptide), transfer 0 (germinated culture), 72 h culture

IRLIT (Derived from Clostridium beijerinckii SEQ ID NO: 141) [peptide SEQ ID NO: 145]
Culture degeneration in terms of production of total alcohols [1]: transiently increase culture degeneration | Final pH ([1]; 1 nM, transfer 1, 96 h culture): 5.3 | Optical density at 600 nm ([1]; 1 nM, transfer 1, 96 h culture): 2.086 | Optical density of ceric ion reactive compounds measured at 500 nm ([1]; 1 nM, transfer 1, 96 h culture): 0.065 | Final pH ([1]; 1 nM, transfer 2, 96 h culture): 5.3 | Optical density at 600 nm ([1]; 1 nM, transfer 2, 96 h culture): 2.086 | Optical density of ceric ion reactive compounds measured at 500 nm ([1]; 1 nM, transfer 2, 96 h culture): 0.032 | Final pH ([1]; 1 nM, transfer 3, 96 h culture): 5.1 | Optical density at 600 nm ([1]; 1 nM, transfer 3, 96 h culture): 2.106 | Optical density of ceric ion reactive compounds measured at 500 nm ([1]; 1 nM, transfer 3, 96 h culture): 0.054 | Final pH ([1]; 1 nM, transfer 4, 96 h culture): 5.3 | Optical density at 600 nm ([1]; 1 nM, transfer 4, 96 h culture): 2.115 | Optical density of ceric ion reactive compounds measured at 500 nm ([1]; 1 nM, transfer 4, 96 h culture): 0.041 | Final pH ([1]; 1 nM, transfer 5, 96 h culture): 5.3 | Optical density at 600 nm ([1]; 1 nM, transfer 5, 96 h culture): 2.090 | Optical density of ceric ion reactive compounds measured at 500 nm ([1]; 1 nM, transfer 5, 96 h culture): 0.061 | Final pH ([1]; 1 nM, transfer 6, 96 h culture): 5.3 | Optical density at 600 nm ([1]; 1 nM, transfer 6, 96 h culture): 2.075 | Optical density of ceric ion reactive compounds measured at 500 nm ([1]; 1 nM, transfer 6, 96 h culture): 0.062 | Final pH [1, 3]: 5.3 | Optical density at 600 nm [1, 3]: 2.080 | Optical density of ceric ion reactive compounds measured at 500 nm [1, 3]: 0.050 | Final pH [1, 4]: 5.3 | Optical density at 600 nm [1, 4]: 2.093 | Optical density of ceric ion reactive compounds measured at 500 nm [1, 4]: 0.008 | Final pH [1, 5]: 5.0 | Optical density at 600 nm [1, 5]: 2.078 | Optical density of ceric ion reactive compounds measured at 500 nm [1, 5]: 0.025 | Final pH [1, 6]: 5.3 | Optical density at 600 nm [1, 6]: 2.108 | Optical density of ceric ion reactive compounds measured at 500 nm [1, 6]: 0.047 | Final pH [1, 7]: 5.4 | Optical density at 600 nm [1, 7]: 2.069 | Optical density of ceric ion reactive compounds measured at 500 nm [1, 7]: 0.065 | Final pH [1, 8]: 5.3 | Optical density at 600 nm [1, 8]: 2.062 | Optical density of ceric ion reactive compounds measured at 500 nm [1, 8]: 0.055 | Final pH [1, 9]: 5.4 | Optical density at 600 nm [1, 9]: 2.102 | Optical density of ceric ion reactive compounds measured at 500 nm [1, 9]: 0.060 | Final pH [1, 10]: 5.3 | Optical density at 600 nm [1, 10]: 2.023 | Optical density of ceric ion reactive compounds measured at 500 nm [1, 10]: 0.023 | Final pH [1, 11]: 5.2 | Optical density at 600 nm [1, 11]: 1.936 | Final pH [1, 12]: 5.3 | Optical density at 600 nm [1, 12]: 2.061 | Optical density of ceric ion reactive compounds measured at 500 nm [1, 12]: 0.039 | Final pH [1, 13]: 5.3 | Optical density at 600 nm [1, 13]: 2.120 | Optical density of ceric ion reactive compounds measured at 500 nm [1, 13]: 0.051 | Final pH [1, 14]: 5.3 | Optical density at 600 nm [1, 14]: 2.046 | Optical density of ceric ion reactive compounds measured at 500 nm [1, 14]: 0.059 | Growth of treated cultures during 96 h of incubation ([1]; 1, 10, 50 nM, dose dependent manner, data not shown): slow the growth | Final pH ([1]; all cultures (0, 1, 10, 50 nM), after the third transfer): ~5.3 | Number of times that cultures could be transferred ([1]; through six culture transfers, in comparison with an untreated culture): did not affect | Effect on germination and growth (visual observations through the course of growth) ([2]; 50 nM): repressive effect on germination and growth | Final pH [2, 15]: 4.1 | Optical density at 600 nm [2, 15]: 1.313 | Optical density of ceric ion reactive compounds measured at 500 nm [2, 15]: −0.026 | Final pH [2, 16]: 6.5 | Optical density at 600 nm [2, 16]: 0.011 | Optical density of ceric ion reactive compounds measured at 500 nm [2, 16]: 0.006 | Effect on endpoint measurements of growth ([2]; 50 nM, after germination or during sequential transfers): no effect | Final pH [2, 17]: 4.1 | Optical density at 600 nm [2, 17]: 1.420 | Optical density of ceric ion reactive compounds measured at 500 nm [2, 17]: −0.038 | Final pH [2, 18]: 6.6 | Optical density at 600 nm [2, 18]: 0.011 | Optical density of ceric ion reactive compounds measured at 500 nm [2, 18]: 0.002 | Final pH [2, 19]: 4.1 | Optical density at 600 nm [2, 19]: 1.158 | Optical density of ceric ion reactive compounds measured at 500 nm [2, 19]: −0.017
